The target of assay [1] is MvitOBP3 protein. As to the kind of experiment: Fluorescence competitive binding assay with 1-NPN probe. The following applies: recombinant MvitOBP3, 1-NPN fluorescent probe; for IC50: read-out: IC50, ligand concentration displacing 50% of the fluorescence intensity of the MvitOBP/N-phenyl-1-naphthylamine complex; for Ki: read-out: Ki, dissociation constant. On the set-up: species or system Maruca vitrata. The method, then:
The fluorescence measurement takes advantage of the fluorescent properties of the dye, 1-NPN (N-Phenyl-1-naphthylamine, CAS 90-30-2) and is performed by Hitachi F-4500. The wavelength of excitation light was 337 nm, the range of scanning emission wavelength was 350–500 nm, and the slit width was 5 nm. […] Add 2 mL of the protein with a final concentration of 2 μmol/L to a 1 cm, four-sided quartz cup, then add 1-NPN (1 mM/L) to the final concentration is 2–24 μmol/L. And recorded the maximum fluorescence value and determine the protein dissociation constant K1-NPN.
In fluorescence competitive binding assay, the 1-NPN was used as the fluorescent probe, and the dissociation constant (Ki) values of the MvitOBP3/1-NPN complexes were calculated according to the changes in the fluorescence intensity (Fig. 5A). […] These seventeen volatile ligands from host-plant were selected to test binding affinities of MvitOBP3 (Fig. 5 and Table 2).

The target of assay [2] is MvitGOBP1. On the set-up: method as in PMID 26517714. The following applies: cited from earlier work.
For assay [3], the target named is MvitGOBP2 protein. On the set-up: method as in PMID 26517714. The following applies: cited from earlier work.

The structures appear in SMILES notation.

Among the data in paper PMC8263619, “Functional characteristics of a novel odorant binding protein in the legume pod borer, Maruca vitrata” (Scientific Reports, 2021) are IC50 and Ki values, retold here.

Regarding `CCc1cccc(CC)c1` [1,3-diethylbenzene], in assay [1], the IC50 stood at 33.6 µM and the Ki was 29.7 µM.
The corresponding values for `CC(=O)c1ccc(C(C)=O)cc1` [1,4-diacetyl benzene] are 28.4 µM and 25.1 µM.
Turning to `CCc1ccc(CC)cc1` [1,4-diethylbenzene], in assay [1], the IC50 amounted to 29.3 µM and the Ki turned out to be 25.9 µM.
With `Cc1cc(C)cc(C(C)(C)C)c1` [1-(1,1-Dimethylethyl)-3,5-dimethylbenzene], in assay [1], the IC50 was 21.8 µM and the Ki is 19.3 µM.
The corresponding values for `CC(=O)c1ccc(C)cc1C` [1-(2,4-Dimethylphenyl)-ethanone] are 21.4 µM and 18.9 µM.
On to `CCc1ccc(C(C)=O)cc1` [1-(4-ethylphenyl)-ethanone], for which, in assay [1], the IC50 amounted to 24.1 µM and the Ki worked out at 21.3 µM.
As to `Oc1cccc2[nH]ccc12` [1H-indol-4-ol], in assay [1], the IC50 stood at 12.6 µM and the Ki came out at 11.2 µM. In addition, the Ki in assay [2] is 10.9 µM.
Consider `O=Cc1ccccc1O` [2-hydroxybenzaldehyde], for which, in assay [1], the IC50 turned out to be 24.2 µM and the Ki turned out to be 21.4 µM.
On to `CC(C=O)Cc1ccccc1` (stereo not shown) [2-methyl-3-phenylpropanal], for which, in assay [1], the IC50 was 10.6 µM and the Ki worked out at 9.38 µM. Moreover, the Ki in assay [3] was 3.81 µM.
Regarding `CCc1ccc(C=O)cc1` [4-ethylbenzaldehyde], in assay [1], the IC50 turned out to be 22.8 µM and the Ki is 20.1 µM.
Regarding `CCC(=O)c1ccc(CC)cc1` [4-ethylpropiophenone], the IC50 in assay [1] was 26.7 µM. Besides, the inhibition constant (Ki) was 23.6 µM in assay [1] and 14.2 µM in assay [2].
Regarding `CC(=O)c1ccc(O)c(C)c1` [4-hydroxy-3-methylacetophenone], in assay [1], the IC50 came to 22.7 µM and the inhibition constant (Ki) came to 20.1 µM.
For the compound `CC(=O)c1ccccc1` [Acetophenone], in assay [1], the IC50 amounted to 41.8 µM and the Ki was 37 µM.
For the compound `O=Cc1ccccc1` [Benzaldehyde], in assay [1], the IC50 worked out at 43.3 µM and the inhibition constant (Ki) stood at 38.3 µM.
In the case of `CCCCOC(=O)CCC` [Butanoic acid butyl ester], in assay [1], the IC50 was 11.1 µM and the Ki is 9.79 µM. The inhibition constant (Ki) in assay [2] is 12.5 µM.
Regarding `CCCCCCCCOC(=O)CCC` [Butanoic acid octyl ester], in assay [1], the IC50 is 21.2 µM and the inhibition constant (Ki) came to 18.7 µM. Also, the Ki in assay [3] is 8.5 µM.
Consider `C=C(C)C1CC=C(C)CC1` (stereo not shown) [Limonene], for which, in assay [1], the IC50 is 9.4 µM. In addition, the inhibitory constant (Ki) in assay [1] was 8.31 µM; in assay [2], 13.8 µM.
